{
  "source": "patent US20100048594A1",
  "about": "“USE OF CYTOHESIN INHIBITORS FOR CHEMICALLY INDUCING LONGEVITY” (RHEINISCHE FRIEDRICH-WILHELMS UNIVERSITAT, priority 2006, published 2010)",
  "key": {"[1]": {"tested_on": "4E-BP", "test": "Expression of insulin-repressed gene 4E-BP in fed Drosophila larvae (real-time PCR)", "assay_type": "in vivo", "settings": "10 mg compound per 1 g brewer's yeast, 3 days", "description": "Three groups of 100 Drosophila larvae received 10 mg of the compound according to formula (9) mixed with 1 g autoclaved and pulverized brewer's yeast (Brewferm), while three control groups of 100 animals each received the uncut brewer's yeast. This food was administered on water-impregnated filters (Macherey-Nagel) for 3 days at 25° C.\nIn each case, more than 10 animals of the group were washed thoroughly with water, placed in lysate buffer (NucleoSpin RNA II kit, Macherey & Nagel), and homogenized for 1 minute at maximum speed (Ultra-Turrax T25basic). Total RNA was isolated using the NucleoSpin RNA II Kit (Macherey & Nagel, including DNase I-treatment on the column).\ncDNA was produced from each 500 ng total RNA using the QuantiTect Reverse Transcription Kit (Qiagen), according to the manufacturer's instructions, including DNase I treatment. PCR was performed in batches with a total volume of 25 μl (iQ5 Real Time PCR Detection System, BioRad). The batches contained 1 μl of the cDNA batch, in each case 200 nM and 3′- and 5′-primer (Metabion) 12.5 μl 2×iQ5 SYBR Green Supermix (BioRad).\nThe PCR program that was used comprised 40 cycles with the following steps: 15 seconds denaturing at 95° C., 30 seconds annealing at 59° C. and 30 seconds extension at 72° C. Evaluation was carried out using the iQ5 Optical System software (Version 1.1.1442.OCR, BioRad). […]"}, "[2]": {"tested_on": "Drosophila melanogaster flies", "test": "Lifespan of adult Drosophila melanogaster flies fed with compound (Kaplan-Meier analysis)", "assay_type": "in vivo", "settings": "for Average Lifespan: ±margin of error", "description": "The experiments were conducted on isogenic flies (Drosophila melanogaster) of the genotype white^1118, also called white^− or w^−, and mutants (w^1118; step^k08110/step^SH0323) (strain # 10770 from the public Bloomington Stock Center, genotype: step^k08110/CyO, URL http://flybase.bio.indiana.edu/reports/FBstOO10770.html; strain # FBst0103734 from the public Szeged Stock Center, genotype: step^SH0323/CyO, URL http://flybase.bio.indiana.edu/reports/FBst0103734.html), in which the Drosophila cytohesin steppke is mutated and therefore defective.\nBy crossing the two steppke alleles k08110 and SH0323 eight times with whites flies, an isogenic genetic background is produced, which permits a comparison of the lifespans between the genotypes of the type white^1118 and the mutants (w^1118; step^k08110/step^SH0323). The average lifespan of the wild type was approximately 25 days, while that of the mutants (w^1118; step^k08110/step^SH0323) was approximately 30 days.\nTo produce the special food, 32.5 g autolysed yeast (Fluka (Catalog No. 73145)) and 10 g agar (Difco (Catalog No. 281230)) were mixed with 300 ml water (demineralized, Roth (Catalog No. 3175)) and autoclaved at 120° C. for 20 minutes. The solution was cooled to 60° C., and 32.5 g α-D(+)-glucose monohydrate (Roth (Catalog No. 6887)) were added under stirring. 15 ml 10% (w/v) p-hydroxybenzoic acid methylester (Sigma (Catalog No. H3647)) solution dissolved in 70% (v/v) ethanol (Roth (Catalog No. 9065)) and 1.35 ml dimethylsulfoxide (DMSO, Roth (Catalog No. A994)) were then added. Water was then added to this basic solution to a volume of 450 ml, which was then held at a temperature of 60° C. For the control food, 50 ml of a 0.7% (v/v) DMSO solution in water were produced. For the food containing the compounds according to formulas (9) or (25), 0.2 ml of a 25 mM solution of the compounds according to formula (9) or (25) in 100% DMSO were added to 49.8 ml of a 0.3012% DMSO solution in water.\nThese 50 ml of the control solutions and the solutions containing the compounds according to formula (9) or (25) were each mixed with 450 ml of the basic solution, and were placed in 4 ml amounts in polystyrene containers (height 9.5 cm, diameter 2.4 cm, sealed with cotton wadding) to maintain the flies. After 24 hours, the cooled containers were sealed with cotton wadding and stored at 4° C.\nThe final concentration of the food components in the control food was 6.5% (w/v) autolysed yeast, 6.5% (w/v) α-D(+)-glucose monohydrate, 2% (w/v) agar, 0.3% (w/v) p-hydroxybenzoic acid methylester, 2.1% ethanol (v/v), 0.34% (v/v) DMSO.\n(§1) The final concentration of the food components in the food containing the compound according to formula (9) was 6.5% (w/v) autolysed yeast, 6.5% (w/v) α-D(+)-glucose monohydrate, 2% (w/v) agar, 0.3% (w/v) p-hydroxybenzoic acid methylester, 2.1% ethanol (v/v), 0.34% (v/v) DMSO, 10 μM compound according to formula (9).\nas §1, with “(25)” for “(9)”, “(25).” for “(9).”\nThe larvae were maintained on standard fly food containing 1.1% (w/v) brewer's yeast (“Gewürzmühle Brecht” company), 5.43% (w/v) cornmeal, 0.53% (w/v) filamentous agar (“Gewürzmühle Brecht” company), 6.6% (v/v) sugar beet syrup (Grafschafter), 1.3% (v/v) ethanol (Roth company), 0.13% (w/v) p-hydroxybenzoic acid methylester (Sigma).\n24 hours after emergence of the imagines, the adult flies, females and males were separated under a brief CO2 anesthetization lasting less than 2 minutes. During the 24 hours after emergence, the animals were fed using standard fly food. […]"}},
  "data": [
    {"smiles": "COc1nc(-c2ccc3c(c2)OCO3)n(-c2ccc(NC(=O)CSc3ccccc3)cc2)n1", "note": "[Compound (9)]", "values": [
      {"measurement": "expression of insulin-repressed gene 4E-BP", "setting": "[1]", "value": "more than four times"},
      {"measurement": "increase in average lifespan as compared with the untreated control animals", "setting": "[2]; control animals (w^1118), 10 μM compound in food, P<0.05", "value": 11.5, "unit": "%"},
      {"measurement": "Average Lifespan", "setting": "[2]; genotype w^1118, female flies, 10 μM compound in food", "value": "28.1 (±1.0) Days"},
      {"measurement": "Average Lifespan", "setting": "[2]; genotype w^1118, step^k08110/step^SH0323 mutants, female flies, 10 μM compound in food", "value": "34.6 (±0.8) Days"},
      {"measurement": "longer lifespan of treated mutants than untreated control animals", "setting": "[2]; steppke mutants fed 10 μM compound versus untreated w^1118", "value": 37.3, "unit": "%"},
      {"measurement": "increase in the average lifespan of mutants by feeding", "setting": "[2]; steppke mutants, 10 μM compound in food, versus untreated mutants, P<0.001", "value": 15.3, "unit": "%"}
    ]}
  ]
}
